Patent publication US6495699B2, “Metalloproteinase inhibitors, pharmaceutical compositions containing them, and their use” (Agouron Pharmaceuticals Inc., priority 1996, dated 2002)

Legend:
[1] = target: T1, human progelatinase A (GelA), catalytic and fibronectin-like portion (Homo sapiens, UniProt P08253); assay: Fluorometric MCA-peptide hydrolysis assay, gelatinase A (GelA); type: biochemical; settings: apparent Ki; 10 μM MCA peptide substrate, 37° C., pH 7.5
T1 construct: The catalytic and fibronectin-like portion of human progelatinase A (GelA) was expressed as a fusion protein with ubiquitin; ubiquitin; made in house; host or cells: E. coli
How it was run: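 E. coli-expressed ubiquitin fusion of human proGelA catalytic plus fibronectin-like domains, autoactivated; 10 μM MCA-Pro-Leu-Gly-Leu-DPA-Ala-Arg-NH2, pH 7.5 Tricine/NaCl/CaCl2/Zn buffer, 2% DMSO, 37° C, 60 min. Fluorescence 328/393 nm; steady-state rates fitted to competitive inhibition or Morrison tight-binding equation giving Ki,app (≈Ki since [S]<<Km).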

[2] = target: T2, human collagenase-3 (Coll3) (Homo sapiens, UniProt P45452); assay: Fluorometric MCA-peptide hydrolysis assay, collagenase-3 (Coll3); type: biochemical; settings: apparent Ki; 10 μM MCA peptide substrate, 37° C., pH 7.5; read-out: Coll3 (Ki,app)
T2 construct: the catalytic domain was liberated by treatment with 2 mM APMA at room temperature overnight; ubiquitin (N, cleaved yes); made in house; host or cells: E. coli

[3] = target: T3, catalytic domain of human stromelysin (Hsln) (Homo sapiens, UniProt P08254); assay: Fluorometric MCA-peptide hydrolysis assay, stromelysin (Hsln); type: biochemical; settings: apparent Ki; 10 μM MCA peptide substrate, 37° C., pH 7.5; read-out: Hsln (Ki,app)
T3 construct: The catalytic domain of human stromelysin (Hsln) was obtained by expression and purification of a C-terminally truncated prostromelysin-1; made in house; host or cells: E. coli BL21
How it was run: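 APMA-activated E. coli–expressed catalytic domain, with 10 μM MCA-Pro-Leu-Gly-Leu-DPA-Ala-Arg-NH2 at 37 °C. Buffer was pH 7.5 Tricine with NaCl, CaCl2, zinc acetate and 2% final DMSO; fluorescence read at ex 328/em 393 nm over 60 min. Ki,app from steady-state rates fitted to competitive or Morrison tight-binding equations.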

[4] = Determination of inhibitor concentration in plasma after oral dosing; type: in vivo, Sprague Dawley rats; settings: Sprague-Dawley, rat plasma
Protocol: The dosing solution consisted of the inhibitor dissolved in either a molar equivalent of HCl in water (vehicle A), in 60% aq. propylene glycol (vehicle B), or in 2.8 mg/mL sodium bicarbonate in 60% aqueous propylene glycol (vehicle C), yielding a final concentration that ranged from 10-15 mg/ml. Sprague Dawley rats (Hilltop Lab Animals, Scottsdale, Pa.) were dosed as a function of drug weight per body weight, usually 50 mgper kg. Blood was taken from the rats and centrifuged, and the plasma was stored in the freezer. Drug was extracted from a 50 μl plasma aliquot by adding 1 ml of acetonitrile, shaking for 2 minutes, centrifuging for 15 minutes at 4000 rpm, collecting the supernatant, and then evaporating it to dryness under a stream of nitrogen. The samples were reconstituted with 130 μl of mobile phase, shook for 2 minutes, and centrifuged for 15 minutes at 4000 rpm. The supernatant was collected and the samples were analyzed by injecting 100 μl of supernatant onto HPLC.
Quantitation of drug levels was accomplished by generating a standard curve of known drug amounts that were extracted from added plasma. Drug levels were plotted as a function of time and analyzed to provide area under the curve (AUC) and maximum concentration (Cmax) values.

[5] = target: T4, Human matrilysin (Matr) (Homo sapiens, UniProt P09237); assay: Fluorometric MCA-peptide hydrolysis assay, matrilysin (Matr); type: biochemical; settings: apparent Ki; 10 μM MCA peptide substrate, 37° C., pH 7.5; read-out: Matr (Ki,app)
T4 construct: the catalytic domain was liberated by treatment with 2 mM APMA at 37° C. for 2 hours; ubiquitin (cleaved yes); made in house; host or cells: E. coli
T4 sequence (P09237 95-267): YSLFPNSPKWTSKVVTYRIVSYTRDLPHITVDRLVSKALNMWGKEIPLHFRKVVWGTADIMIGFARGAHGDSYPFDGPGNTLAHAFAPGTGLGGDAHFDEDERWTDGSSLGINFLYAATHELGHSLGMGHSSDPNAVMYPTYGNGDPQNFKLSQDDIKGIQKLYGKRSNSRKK
How it was run: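 Catalytic domain of E. coli-expressed human matrilysin assayed at 37° C, pH 7.5 Tricine buffer, 2% DMSO, with 10 μM MCA-Pro-Leu-Gly-Leu-DPA-Ala-Arg-NH2; fluorescence ex 328/em 393 nm over 60 min. Ki,app from steady-state rates fitted to competitive inhibition or Morrison tight-binding equation.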

[6] = target: T5, fibroblast collagenase-1 catalytic domain (HFC) (Homo sapiens, UniProt P03956); assay: Fluorometric MCA-peptide hydrolysis assay, fibroblast collagenase-1 (HFC); type: biochemical; settings: apparent Ki; 10 μM MCA peptide substrate, 37° C., pH 7.5; read-out: HFC (Ki,app)
T5 construct: The catalytic domain of human collagenase-1 was expressed as a fusion protein with ubiquitin in E. coli; ubiquitin (cleaved yes); made in house; host or cells: E. coli
T5 sequence (P03956 100-269 limits assumed): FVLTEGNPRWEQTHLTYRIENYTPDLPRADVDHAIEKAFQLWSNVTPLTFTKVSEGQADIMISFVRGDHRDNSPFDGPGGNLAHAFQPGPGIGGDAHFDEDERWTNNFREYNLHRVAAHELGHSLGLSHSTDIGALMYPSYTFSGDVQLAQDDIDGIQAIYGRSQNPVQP
Protocol: The catalytic domain of human collagenase-1 was expressed as a fusion protein with ubiquitin in E. coli (see Gehring, E. R., J Biol. Chem., 1995, 270, 22507). After purification of the fusion protein, the fibroblast collagenase-1 catalytic domain (HFC) was released either by treatment with purified, active stromelysin-1 (1:50 w/w ratio), which generated nearly 100% N-terminal Phe1, or by autoprocessing the concentrated collagenase-1 fusion and then incubating at 37° C. for 1 hour. Final purification was completed using zinc chelate chromatography.
Assays were performed in assay buffer (50 mM Tricine pH 7.5, 200 mM sodium chloride, 10 mM calcium chloride, 0.5 mM zinc acetate containing 2% dimethyl sulfoxide (DMSO)) once the substrate and inhibitor were diluted into it. Stock solutions of inhibitors were prepared in 100% DMSO. Stock solutions of the substrate were prepared in 100% DMSO at a concentration of 6 mM.
The assay method was based on the hydrolysis of MCA-Pro-Leu-Gly-Leu-DPA-Ala-Arg-NH2 (American Peptide Co.) at 37° C. (see Knight, C. G. et al., FEBS, 1992, 296, 263-266). The fluorescence changes were monitored with a Perkin-Elmer LS-50B fluorimeter using an excitation wavelength of 328 nm and an emission wavelength of 393 nm. The substrate concentration used in the assays was 10 μM. The inhibitor was diluted into the assays from a solution in 100% DMSO, and controls substituted an equal volume of DMSO so that the final DMSO concentration from inhibitor and substrate dilution in all assays was 2%. […] Proper determination of steady-state rates of substrate cleavage required assay lengths of 60 minutes to allow for complete equilibration of the enzyme-inhibitor complex.
The Km for the MCA peptide substrate with the matrix metalloproteinases is quite high and exceeds its solubility under assay conditions. Consequently, the apparent Ki (Ki,app) was determined to describe the strength of inhibition. However, in this case, Ki,app would be essentially equal to Ki since [S]<<Km. For the determination of Ki,app, the concentration of the inhibitor was varied at a constant and low concentration of substrate and the steady-state rates of fluorescence change determined. In most cases absorptive quench due to the presence of ligand was not observed. For slow-binding inhibitors, onset of inhibition curves were collected for at least 45 minutes so that equilibrium was established. Steady-state rates of fluorescence change were obtained by fitting a curve to an equation for a single exponential decay containing a linear phase. The fitted value of the linear phase was taken as the steady-state rate. The steady-state rates were fitted to the Michaelis equation describing competitive inhibition by non-linear methods. Data resulting from tight-binding inhibition was analyzed, and Ki,app determined by fitting the data to the tight-binding equation of Morrison (Biochem. Biophys. Acta, vol. 185, pp. 269-286 (1969)) by non-linear methods.

[7] = dose 50 mg/kg, vehicle B (60% aq. propylene glycol)
[8] = dose 25 mg/kg, vehicle C (2.8 mg/mL sodium bicarbonate in 60% aqueous propylene glycol)
[9] = dose 25 mg/kg, vehicle A (molar equivalent of HCl in water)
[10] = dose 50 mg/kg, vehicle A, dosed as the benzyl ester prodrug
[11] = dose 50 mg/kg, vehicle B, dosed as the benzyl ester prodrug

T3 sequence (P08254 100-272 limits assumed): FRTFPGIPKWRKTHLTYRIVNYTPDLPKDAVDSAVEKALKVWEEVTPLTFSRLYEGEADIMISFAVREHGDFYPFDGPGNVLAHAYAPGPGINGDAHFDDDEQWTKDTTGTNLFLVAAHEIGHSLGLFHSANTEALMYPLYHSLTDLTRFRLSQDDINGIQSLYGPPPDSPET
T1 sequence (P08253 110-465 limits assumed): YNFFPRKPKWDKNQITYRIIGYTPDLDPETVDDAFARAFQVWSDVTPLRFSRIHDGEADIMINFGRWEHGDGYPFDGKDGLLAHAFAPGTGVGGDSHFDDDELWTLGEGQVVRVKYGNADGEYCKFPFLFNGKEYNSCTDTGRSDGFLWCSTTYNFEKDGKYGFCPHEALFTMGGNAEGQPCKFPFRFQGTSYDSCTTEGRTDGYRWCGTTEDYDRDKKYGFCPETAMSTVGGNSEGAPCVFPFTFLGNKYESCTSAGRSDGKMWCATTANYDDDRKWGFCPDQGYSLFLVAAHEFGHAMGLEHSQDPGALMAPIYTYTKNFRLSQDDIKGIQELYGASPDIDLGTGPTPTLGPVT

CC(C)(C)[C@H](NC(=O)[C@@H](CC(=O)O)n1ccc(-c2ccc(-c3ccncc3)cc2)c1)C(=O)Nc1ccncc1 [Example 7(b), N-[2,2-Dimethyl-1(S)-(pyridin-4-ylcarbamoyl)propyl]-3(R)-[3-[4-(pyridin-4-yl)phenyl]-1H-pyrrol-1-yl]succinamic Acid]
GelA (Ki,app) [1]: 0.007 nM | Ki [2]: 0.01 nM | Ki [3]: 0.29 nM | AUC [4, 7]: 400 ng·h/mL | Cmax [4, 7]: 210 ng/mL | Ki [5]: 5 nM | Ki [6]: 453 nM

CCOC(=O)c1ccc(NC(=O)[C@H](CC(C)C)NC(=O)[C@@H](CC(=O)O)n2cccc2)cc1 [Example 1(n), 4-[2S-(3-Carboxy-2(R)-1H-pyrrol-1-yl-propionylamido)-4-methyl-pentanoylamino]benzoic Acid Ethyl Ester]
Ki [2]: 8500 nM | Ki [3]: 2000 nM | Ki [5]: > 10000 nM | melting point: 111 to 114 °C | Ki [6]: 1900 nM

O=C(O)C[C@H](C(=O)N[C@H]1Cc2cn(c3ccccc23)CCOCCNC1=O)n1ccc(-c2ccc(-c3ccncc3)cc2)c1 [Example 7(a), N-(8-Oxo-4-oxa-1,7-diazatricyclo[9.6.1.0^12,17]octadeca-11(18),12,14,16-tetraen-9(S)-yl)-3(R)-[3-[4-(pyridin-4-yl)phenyl]-1H-pyrrol-1-yl]succinamic Acid]
GelA (Ki,app) [1]: 0.015 nM | Ki [2]: 0.013 nM | Ki [3]: 2 nM | Ki [5]: 640 nM | melting point: > 172 °C (dec.) | Ki [6]: 333 nM

CNC(=O)[C@@H](NC(=O)[C@@H](CC(=O)O)c1ccn(-c2ccc(F)cc2)c1)C(C)(C)C [Example 14(a), N-[2,2-Dimethyl-1(S)-(methylcarbamoyl)propyl]-3(S)-[1-(4-fluorophenyl)-1H-pyrrol-3-yl]succinamic Acid]
GelA (Ki,app) [1]: 4.3 nM | Ki [2]: 7.2 nM | Ki [3]: 558 nM | AUC [4, 7]: 1570 ng·h/mL | Cmax [4, 7]: 820 ng/mL

CC1(C)COC(=O)[C@H]1NC(=O)[C@@H](CC(=O)O)c1ccn(-c2ccc(-c3ccc(C#N)cc3)cc2)c1 [Example 14(d), 3(S)-[1-(4′-Cyanobiphenyl-4-yl)-1H-pyrrol-3-yl]-N-(4,4-dimethyl-2-oxo-tetrahydrofuran-3(S)-yl)succinamic Acid]
GelA (Ki,app) [1]: 0.9 nM | Ki [3]: 19 nM | AUC [4, 8]: 5820 ng·h/mL | Cmax [4, 8]: 1370 ng/mL

O=C(O)C[C@H](C(=O)N[C@H]1Cc2cn(c3ccccc23)CCCCCCNC1=O)n1cccc1 [Example 1(o), N-(9-oxo-1,8-Diaza-tricyclo[10.6.1.0^13,18]nonadeca-12(19), 13,15,17-tetraen-10S-yl)-3(R)-1H-pyrrol-1-yl-succinamic Acid]
Ki [3]: > 10000 nM | Ki [5]: 15000 nM | melting point: 139 to 144 °C | Ki [6]: 51500 nM

CC1(C)COC(=O)[C@H]1NC(=O)[C@@H](CC(=O)O)n1ccc(-c2ccc(-c3ccncc3)cc2)c1 [Example 6(c), N-(4,4-Dimethyl-2-oxo-tetrahydrofuran-3(S)-yl)-3(R)-[3-[4-(pyridin-4-yl)phenyl]-1H-pyrrol-1-yl]succinamic Acid]
GelA (Ki,app) [1]: 0.806 nM | Ki [2]: 7.6 nM | Ki [3]: 54 nM | AUC [4, 9]: 933 ng·h/mL | Cmax [4, 9]: 450 ng/mL | AUC [4, 10]: 4420 ng·h/mL | Cmax [4, 10]: 1140 ng/mL | Ki [5]: 5000 nM

COC(=O)c1ccc(NC(=O)[C@H](CC(C)C)NC(=O)[C@@H](CC(=O)O)c2ccsc2)cc1 [Example 17(b), 4-[2(S)-[2(R)-Carboxymethyl-2-(thien-3-yl)acetylamino]-4-methyl-valeroyl]-aminobenzoic Acid Methyl Ester]
Ki [3]: 720 nM | Ki [5]: 309 nM | melting point: 199 to 201 °C | Ki [6]: 20000 nM

CNC(=O)[C@@H](NC(=O)[C@@H](CC(=O)O)n1ccc(-c2ccc(-c3ccncc3)cc2)c1)C(C)(C)C [Example 6(b), N-(2,2-Dimethyl-1(S)-(methylcarbamoyl)propyl)-3(R)-[3-(4-(pyridin-4-yl)phenyl)-1H-pyrrol-1-yl]succinamic Acid]
GelA (Ki,app) [1]: 0.066 nM | Ki [2]: 0.21 nM | Ki [3]: 3.6 nM | AUC [4, 11]: 617 ng·h/mL | Cmax [4, 11]: 300 ng/mL | Ki [6]: 2900 nM

O=C(O)C[C@H](C(=O)N[C@H](CO)Cc1ccccc1)c1ccn(-c2ccc(-c3ccccc3)cc2)c1 [Example 13]
GelA (Ki,app) [1]: 1.7 nM | Ki [2]: 21 nM | Ki [3]: 35 nM | Ki [5]: 16900 nM | melting point: 151 to 154 °C | Ki [6]: 72000 nM
